From PMC3876124, “Identification and Biochemical Characterization of Protein Phosphatase 5 from the Cantharidin-Producing Blister Beetle, Epicauta chinensis” (International Journal of Molecular Sciences, 2013)
pIC50: −log10 of the molar value. Where two headings read alike, the source gives them in different places.

Molecular target: T1, Protein phosphatase 5 (EcPP5, rEcPP5) (Epicauta chinensis, UniProt W0FW71)
T1 construct: recombinant full ORF (499 aa), N-terminal His6 tag, E. coli expressed
T1 sequence (W0FW71 1-499): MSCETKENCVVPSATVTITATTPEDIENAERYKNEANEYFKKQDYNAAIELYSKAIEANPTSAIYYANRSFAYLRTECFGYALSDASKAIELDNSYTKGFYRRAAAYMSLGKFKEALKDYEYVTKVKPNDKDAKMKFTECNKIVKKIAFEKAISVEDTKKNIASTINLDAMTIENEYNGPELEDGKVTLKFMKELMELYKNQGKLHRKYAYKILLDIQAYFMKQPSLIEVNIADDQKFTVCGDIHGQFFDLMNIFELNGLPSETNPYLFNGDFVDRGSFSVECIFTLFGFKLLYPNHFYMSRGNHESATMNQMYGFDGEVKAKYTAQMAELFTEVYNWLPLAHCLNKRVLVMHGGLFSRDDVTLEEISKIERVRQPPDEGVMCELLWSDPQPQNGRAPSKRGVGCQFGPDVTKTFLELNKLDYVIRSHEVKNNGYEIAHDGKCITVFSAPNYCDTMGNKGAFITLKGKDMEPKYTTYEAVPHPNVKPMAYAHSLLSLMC
Assay: pNPP phosphatase assay, dose-response, purified enzyme
Assay type: biochemical

Row | Compound | pIC50 | pIC50 (read-out: IC50)
1 | C[C@@]12C(=O)OC(=O)[C@]1(C)[C@H]1CC[C@@H]2O1 [cantharidin] | 5.50 | 
2 | O=C(O)[C@@H]1[C@H](C(=O)O)[C@H]2CC[C@@H]1O2 [endothall] | 4.55 | 
3 | O=C1OC(=O)[C@H]2[C@@H]1[C@@H]1CC[C@H]2O1 [norcantharidin] |  | 4.59
4 | C=C1[C@@H](O)[C@@H]2O[C@]3(CC[C@H](/C=C/[C@@H](C)[C@@H]4CC(C)=C[C@@]5(O[C@H](C[C@@](C)(O)C(=O)O)CC[C@H]5O)O4)O3)CC[C@H]2O[C@@H]1[C@@H](O)C[C@H](C)[C@H]1O[C@@]2(CCCCO2)CC[C@H]1C [okadaic acid] | 6.72 | 
